Legend:
Type in all cases: cell-based, human
[1] = system: colorectal cells (Colo205); test: Morphology of cultured tumor cells, Colo205; settings: ivermectin 10 μM alone, albendazole 20 and 40 μM alone (FIG. 11)
Method: (§1) Commercially available human tumor cell lines were purchased from ATCC (ATCC/LGC-standards, Borás, Sweden). […] Briefly, ampoules of frozen cells were thawed by submerging into a 37° C. water bath for 45 s. […] With supernatant discarded, cell pellets were further resuspended with 5 ml complete medium into 25 cm^2 cell culture flasks (Cell+, Sarstedt, Nümbrecht, Germany). Tumor cells were cultured until sub-confluence and further sub-cultured with Trypsin (0.5%), EDTA (0.2%) solution (T4174, TE-10x, Sigma) in sterile sodium chloride. Culture media was changed two-three times a week. Culture flasks (Cell+, Sarstedt, Nümbrecht, Germany) and culture plates (Falcon/BD, Franklin Lakes, N.J., USA) were used for experimental set-ups. Cells were regularly monitored using an inverted microscope connected to a digital photo equipment (Axiovert 25 and Axiovision, Zeiss, Carl Zeiss AG, Germany) (FIG. 1). Described culture techniques and equipment have been used extensively in the laboratory
(§2) The effect of Ivermectin, selamectin, abamectin alone, or in combination with ketoconazole, albendazole, ibuprofen, diclofenac and celecoxib on the morphology of cultured human tumor cells was studied. The effect of ivermectin in the presence of increasing concentration of ivermectin was also investigated. Cells were grown into sub-confluence and then sub-cultured into 12 and 24 well plates (Sarstedt, Falcon/BD) for morphology studies, or in 96 well plates (Sarstedt, Falcon/BD) for proliferation studies.

[2] = system: urinary bladder cell line (UM-UC-3); test: XTT-assay proliferation rate, urinary bladder cell line; settings: UM-UC-3 (Table 3), no IVM
Method: as §1
(§3) The proliferation rates of the different human tumor cell lines were studied using a method based on the conversion of a sodium salt (XTT-assay, Sigma) into a stable orange color that could be analyzed in a spectrophotometer. […] The color change was measured using a 96-well plate reader with software to calculate the absorbance at 450 nm (V-max/Softmax Pro, Molecular Devices, USA).
(§4) Increasing concentrations of substance ivermectin was added with an 8-channel pipette (Titertek, Kem-En-Tec, Taastrup, Denmark) together with sterile pipette tips (Molecular Bioproducts, San Diego, Calif., USA). Cell cultures including active substances were incubated for 24 hours (and 96 hours). Untreated wells including culture medium only served as untreated controls. The XTT-assay substrate was added and after gentle agitation using a micro plate shaker, absorbencies at 450 and 650 nm were measured. Levels from medium were subtracted and compared with control wells, using culture medium only.

[3] = system: colorectal cell line (Colo205); test: XTT-assay proliferation rate, colorectal cell line Colo205; settings: Colo205 (Table 4), no IVM
Source text: Commercially available human tumor cell lines were purchased from […], Borás, Sweden). Cell lines from urinary bladder (UM-UC-3, #CRL-1749), colorectal carcinoma (Colo205, #CCL-222 and HT29, #HTB-38), prostate carcinoma (LNCaP, #CRL-1740) and breast carcinoma (ZR-75-1, #CRL-1500) were purchased and stored in liquid nitrogen. […] Tumor cell lines were handled aseptically using a laminar airflow (LAF) bench (Holten 2448, Ninolab, Sweden) and stored in a liquid nitrogen tank and were initiated in culture as previously described (Falk P. Experimental models of the peritoneal environment: Effects of TGF-beta and Hyaluronan. Göteborg: University of Gothenburg; 2008). Briefly, ampoules of frozen cells were thawed by submerging into a 37° C. water bath for 45 s. […] Culture media was changed two-three times a week. Culture flasks (Cell+, Sarstedt, Nümbrecht, Germany) and culture plates (Falcon/BD, Franklin Lakes, N.J., USA) were used for experimental set-ups. […] Described culture techniques and equipment have been used extensively in the laboratory The proliferation rates of the different human tumor cell lines were studied using a method based on the conversion of a sodium salt (XTT-assay, Sigma) into a stable orange color that could be analyzed in a spectrophotometer. The color change is proportional to the mitochondrial dehydrogenase activity resulting in an effective technique for measuring cell toxicity (Roehm N W, Rodgers […], Glasebrook A L. An improved colorimetric assay for cell proliferation and viability utilizing the tetrazolium salt XTT. […] The color change was measured using a 96-well plate reader with software to calculate the absorbance at 450 nm (V-max/Softmax Pro, Molecular Devices, USA). […] RPMI 1640 and EMEM without phenol red was used during the experiments to reduce the red color background signal in the XTT-assay. […] Untreated wells including culture medium only served as untreated controls. The XTT-assay substrate was added and after gentle agitation using a micro plate shaker, absorbencies at 450 and 650 nm were measured. Levels from medium were subtracted and compared with control wells, using culture medium only.

[4] = system: breast cell line (ZR-75-1); test: XTT-assay proliferation rate, breast cell line; settings: ZR-75-1 (Table 6), no IVM
Method: as §1, §3, §4

[5] = system: prostatic cell line (LNCaP); test: XTT-assay proliferation rate, prostatic cell line; settings: LNCaP (Table 5); single agent 10 μmol/L, no IVM
Method: as §1, §3, §4

[6] = system: prostate cells (LNCaP); test: Morphology of cultured tumor cells, LNCaP
Method: as §1, §2

[7] = system: prostatic cell line (LNCaP); test: XTT-assay proliferation rate, prostatic cell line; settings: for Proliferation rate compared to untreated control: LNCaP (Table 5), no IVM

| Compound | Decreased growth of cells, substances tested alone [1] | Proliferation rate compared to untreated medium control ([2]; single agent 10 μmol/L) | Proliferation rate compared to untreated medium control ([2]; single agent 20 μmol/L) | Proliferation rate compared to untreated medium control ([2]; single agent 40 μmol/L) | Proliferation rate compared to medium control ([3]; single agent 10 μmol/L) | Proliferation rate compared to medium control ([3]; single agent 20 μmol/L) | Proliferation rate compared to medium control ([3]; single agent 40 μmol/L) | Proliferation rate compared to untreated control ([4]; single agent 10 μmol/L) | Proliferation rate compared to untreated control ([4]; single agent 20 μmol/L) | Proliferation rate compared to untreated control ([4]; single agent 40 μmol/L) | Proliferation rate compared to untreated control [5] | Effect on morphology ([6]; ketoconazole 10 μM) | Effect on morphology ([6]; ketoconazole 20 and 40 μM) | Proliferation rate compared to untreated control ([7]; single agent 10 μmol/L, listed as Ket) | Proliferation rate compared to untreated control ([7]; single agent 20 μmol/L) | Proliferation rate compared to untreated control ([7]; single agent 40 μmol/L) | Effect on proliferation rate ([7]; LNCaP, ketoconazole alone at 20 and 40 μM) |
| --- | --- | --- | --- | --- | --- | --- | --- | --- | --- | --- | --- | --- | --- | --- | --- | --- | --- |
| CCCSc1ccc2nc(NC(=O)OC)[nH]c2c1 [albendazole, Methyl[6-(propylthio)-1H-benzoimidazol-2-yl]carbamate] | not seen |  |  |  |  |  |  |  |  |  |  |  |  |  |  |  |  |
| Cc1ccc(-c2cc(C(F)(F)F)nn2-c2ccc(S(N)(=O)=O)cc2)cc1 [celecoxib, 4-[5-(4-methylphenyl)-3-(trifluoromethyl)pyrazol-1-yl]benzenesulfonamide] |  | 103 ± 9% | 100 ± 6% | 106 ± 1% | 98.7 ± 15.8% | 94.8 ± 2.5% | 94.5 ± 6.6% | 116.5 ± 4.4% | 110.6 ± 13.3% | 95.2 ± 4.9% |  |  |  |  |  |  |  |
| CC(=O)N1CCN(c2ccc(OC[C@H]3CO[C@](Cn4ccnc4)(c4ccc(Cl)cc4Cl)O3)cc2)CC1 [ketoconazole, 1-[4-(4-{[(2R,4S)-2-(2,4-Dichlorophenyl)-2-(1H-imidazol-1-ylmethyl)-1,3-dioxolan-4-yl]methoxy}phenyl)piperazin-1-yl]ethan-1-one] |  | 95 ± 6% | 99 ± 6% | 103 ± 2% | 94.8 ± 6.3% | 93.4 ± 8.1% | 72.1 ± 15.5% |  |  |  | 104.6±3.0% | not microscopically affected | did affect morphology | 104.6 ± 3.0% | 76.3 ± 2.3% | 68.0 ± 1.8% | decreased the proliferation rate |
| CC(C)Cc1ccc(C(C)C(=O)O)cc1 (racemic) [ibuprofen, (RS)-2-(4-(2-methylpropyl)phenyl)propanoic acid] |  | 103 ± 2% | 106 ± 2% | 99 ± 3% | 90.1 ± 8.8% | 92.2 ± 8.2% | 90.8 ± 6.3% | 115.2 ± 3.8% | 116.2 ± 1.9% | 108.7 ± 6.7% |  |  |  |  |  |  |  |
